Laboratory results published in PubChem BioAssay AID463206 (Broad Institute, 2010).
Activity calls are given as the source filed them.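 Rule for the calls: active = caspase luminescence falls with dose and the half-maximal concentration AC50 from the fitted curve is at or below a set limit; inconclusive = flat fit at 30 to 70% signal loss, or invalid fit; inactive = AC50 above the limit, or signal rises instead.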

What follows are compounds tested on INS-1E cytokine-induced caspase-3/7, Caspase-Glo luminescence, 48 h (assay: inhibitors of cytokine-induced caspase-3/7 activity, dose response, orthogonal assay for beta-cell apoptosis protection project, INS-1E rat cells, luminescence (AID 463206)).

SMILES | AC50
COc1ccc(O)c(/C=N/NC(=S)Nc2cccnc2)c1 | > 26 µM (inactive)
C=C1C(=O)O[C@@H]2C[C@@H](C)[C@@H]3C4OC4C(=O)[C@@]3(C)[C@@H](O)[C@H]12 (stereo not given in full) | > 26 µM (inactive)
COc1cccc(/C=N/Nc2cc(C)nc(-c3ccccc3O)n2)c1O | > 26 µM (inactive)
CCOc1ccc(-n2c(-c3ccccc3)c[n+]3c2CCC3)cc1 | > 26 µM (inactive)
N=c1c2c(n(Cc3ccc(Br)cc3)c3c1CCC3)CCCC2 | > 26 µM (inactive)
CCCCn1cnc2c(c(-c3ccccc3)c(-c3ccccc3)n2Cc2ccco2)c1=N | > 26 µM (inactive)
Cc1ccc2nc(N(CCCN(C)C)C(=O)c3ccc(S(=O)(=O)N4CCc5ccccc5C4)cc3)sc2c1 | > 26 µM (inactive)
O=C(/C=C/NNC(=O)c1ccccc1)c1ccc([N+](=O)[O-])cc1 | > 26 µM (inactive)
COC1=C(Nc2ccccc2)C(=O)c2ccccc2C1=O | > 26 µM (inactive)
COc1ccc(Cc2nnc(N/N=C/c3ccccc3O)[nH]c2=O)cc1OC | > 26 µM (inactive)
COc1ccc(CN(C)c2ccc(S(=O)(=O)N3CCN(C)CC3)cc2[N+](=O)[O-])cc1OC | > 26 µM (inactive)
COc1cc(CNC(C)c2ccccc2)cc(Br)c1OCc1ccc(F)cc1 (stereo not given) | > 26 µM (inactive)
CCc1ccc(S(=O)(=O)/N=C2\C=C(Nc3ccc(C(=O)O)cc3)C(=O)c3ccccc32)cc1 | > 26 µM (inactive)
Cn1nc(CC(=O)Nc2ccc3c(c2)OCCO3)c2ccccc2c1=O | > 26 µM (inactive)
Nc1nc(F)nc2c1ncn2[C@@H]1O[C@H](CO)[C@@H](O)[C@H]1O | > 26 µM (inactive)
O=[N+]([O-])c1cc(/C=N/Nc2nc3ccccc3[nH]2)c(O)cc1O | > 26 µM (inactive)
O=C(NC(=S)NNC(=O)c1cnccn1)c1ccc(F)cc1 | > 26 µM (inactive)
CCN(CC)S(=O)(=O)c1cc(NC(=O)CNc2cccc(S(=O)(=O)N3CCCC3)c2)ccc1C | > 26 µM (inactive)
COc1ccc(/C=C/C(=O)c2ccncc2)c2ccccc12 | > 26 µM (inactive)
CC(C)Oc1ccc(S(=O)(=O)N2CCCCC2)cc1NC(=O)CN1CCCC1c1cccs1 (stereo not given) | > 26 µM (inactive)
Cc1ccc(NC(=O)c2cc(S(=O)(=O)NCCC3=CCCCC3)ccc2F)cc1F | > 26 µM (inactive)
[O-][n+]1onc2c1CCc1c-2nn(-c2ccccc2Cl)[n+]1[O-] | 15.9 µM
CN(/N=C/c1cc(Br)cc(Br)c1O)c1cccc(C(F)(F)F)n1 | > 12 µM (inactive)

SMILES | AC50
c1ccc(-c2nnc(CSc3ccc4c(c3)OCCO4)o2)cc1 | > 26 µM (inactive)
c1ccc(-c2nc(N3CCCCCC3)c3ccccc3n2)nc1 | > 26 µM (inactive)
C#CCOCCOCCOCCNc1nc(N2CCN(C(=O)CCCCCCCCCCNC(=O)[C@H]([C@@H](C)CC)n3cc(CCCCCN)nn3)CC2)nc(N2CCN(C(=O)CCCCCCCCCCNC(=O)[C@@H]([C@H](C)O)n3cc(C)nn3)CC2)n1 | > 26 µM (inactive)
O=C(c1cc(-c2cccc(O)c2)on1)N1CCN(C(c2ccccc2)c2ccccc2)CC1 | > 26 µM (inactive)
Cc1cccc2sc(NNC(=O)c3ccc(S(=O)(=O)N4CCCC(C)C4)cc3)nc12 (stereo not given) | > 26 µM (inactive)
Cc1nc2ccc(NC(=O)c3cc(S(=O)(=O)N(C)c4ccccc4)ccc3Cl)cc2s1 | > 26 µM (inactive)
CCCCCCCCCCOC(=O)Cn1c(COc2ccccc2OC)[n+](C)c2ccccc21 | > 26 µM (inactive)
COc1ccc(C2/C=C\CN(C(=O)c3ccccc3)[C@H](Cc3ccccc3)C(=O)N2Cc2ccc(F)cc2)cc1 (stereo not given in full) | > 26 µM (inactive)
COc1cccc(/C=N/Nc2ccc([N+](=O)[O-])cn2)c1O | > 26 µM (inactive)
Oc1ccc(N=Nc2nccs2)c(O)c1 | > 26 µM (inactive)
C=CCc1cccc(/C=N/NC(=O)c2ccccc2OC)c1O | > 26 µM (inactive)
CCN1CCN(Cc2ccc(NC(=O)c3ccc(C)c(NC(=O)c4c[nH]c5cc(C(F)(F)F)ccc5c4=O)c3)cc2C(F)(F)F)CC1 | > 26 µM (inactive)
Cc1[nH]c2ccccc2c1CN1CCC(Cc2ccccc2)CC1 | > 26 µM (inactive)
Cn1nccc1C(=O)N/N=C/c1c(O)ccc2ccccc12 | > 26 µM (inactive)
CC1CCC(C(C)C)C(OC(=O)Cn2c(-c3ccc(Cl)cc3)[n+](C)c3ccccc32)C1 (stereo not given) | > 26 µM (inactive)
CCOC(=O)c1ccc(NC(=O)c2nc(S(=O)(=O)Cc3ccccc3)ncc2Cl)cc1 | > 26 µM (inactive)
O=C(N/N=C/c1ccccc1O)C1CC(=O)N(c2ccc(Cl)cc2)C1 (stereo not given) | > 26 µM (inactive)
O=C(C1CCC1)N1CCc2cc(S(=O)(=O)Nc3ccc4c(c3)OCCO4)ccc21 | > 26 µM (inactive)
CC(C)(C)c1cc(NCCCn2ccnc2)n2ncc(-c3ccccc3)c2n1 | > 26 µM (inactive)
COC(=O)C1=C(C)N(Cc2ccccc2)C(=NCc2cccc(Cl)c2)N[C@H]1c1cccc(F)c1 | > 26 µM (inactive)
Oc1ccccc1/C=N/Nc1nc2ccccc2o1 | > 26 µM (inactive)
C=CCn1c(SCN2C(=O)c3ccccc3C2=O)nc2ccc(Cl)cc2c1=O | > 26 µM (inactive)
